Data from patent US6693103B2 (Wyeth, priority 1999, dated 2004).

Legend:
[1] = test system: rat uterine decidualization; assay: Rat decidualization assay; type: in vivo; details: ovariectomized female Sprague-Dawley rats, s.c.; average of dose-response curves
Method: The animals are treated once daily for seven days.
Uteri are removed and trimmed of fat.
Decidual response: [(D−C)/C]×100%

average EC50 for uterine weight (decidual response) [1] | melting point | Compound
0.10 mg/kg | – | C#C[C@]1(O)CC[C@H]2[C@@H]3CCC4=CC(=O)CC[C@@H]4[C@H]3CC[C@@]21CC [Levonorgestrel]
0.10 mg/kg | – | C#C[C@]1(O)CC[C@H]2[C@@H]3CCC4=CC(=O)CC[C@@H]4[C@H]3C(=C)C[C@@]21CC [3-Ketodesogestrel]
– | 190 to 192 °C | CC1(C)CC(=O)Nc2ccc(-c3cccc(C#N)c3)cc21 [Example 42, 3-(4,4-Dimethyl-2-oxo-1,2,3,4-tetrahydroquinolin-6-yl)benzonitrile]
